IC50 data for 29 compounds are collected here from patent US12358915B2, “METTL3 inhibitory compounds” (STORM THERAPEUTICS LTD., priority 2019, dated 2025).

For this assay, the target named is T1, METTL3/14 (Homo sapiens, UniProt Q86U44).
T1 construct: The enzyme used was full-length his-tagged METTL3; His; made in house
The assay can be described thus: METTL3/14 methyltransferase assay (METTL3_14 RFMS, RapidFire mass spectrometry).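 Also: recombinant His-tagged METTL3 with FLAG-tagged METTL14 from baculovirus, SAH product quantified by mass spectrometry against isotope-labelled internal standards, 60 min at room temperature, scaled between no-RNA and DMSO-only wells.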 Conditions: read-out: METTL3_14 RFMS IC50. Type of assay: biochemical.

[1] abbreviates: 5 nM METTL3/14, 0.2 μM RNA substrate, 0.5 μM SAM, lower limit of the assay IC50=5 nM, Compounds 63-265.

Molecules are shown by their SMILES. pIC50: −log10 of the molar value. Where two headings read alike, the source gives them in different places.

T1 sequence (Q86U44 whole entry): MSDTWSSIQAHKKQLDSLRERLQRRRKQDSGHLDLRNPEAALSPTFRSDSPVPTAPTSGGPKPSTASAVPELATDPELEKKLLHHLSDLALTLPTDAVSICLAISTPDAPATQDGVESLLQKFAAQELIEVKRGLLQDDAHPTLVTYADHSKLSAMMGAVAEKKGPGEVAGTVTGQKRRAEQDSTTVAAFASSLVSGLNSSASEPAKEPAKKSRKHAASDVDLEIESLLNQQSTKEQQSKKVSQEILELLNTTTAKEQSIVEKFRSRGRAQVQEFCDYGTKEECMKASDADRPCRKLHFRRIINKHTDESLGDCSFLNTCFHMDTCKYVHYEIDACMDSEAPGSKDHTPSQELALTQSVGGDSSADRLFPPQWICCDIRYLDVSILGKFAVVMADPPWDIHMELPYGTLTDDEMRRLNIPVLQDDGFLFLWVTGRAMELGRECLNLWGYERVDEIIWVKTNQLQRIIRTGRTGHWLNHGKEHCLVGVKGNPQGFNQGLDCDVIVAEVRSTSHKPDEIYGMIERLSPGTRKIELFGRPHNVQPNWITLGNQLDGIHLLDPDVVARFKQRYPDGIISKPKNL
T1 sequence (Q9HCE5 whole entry partner): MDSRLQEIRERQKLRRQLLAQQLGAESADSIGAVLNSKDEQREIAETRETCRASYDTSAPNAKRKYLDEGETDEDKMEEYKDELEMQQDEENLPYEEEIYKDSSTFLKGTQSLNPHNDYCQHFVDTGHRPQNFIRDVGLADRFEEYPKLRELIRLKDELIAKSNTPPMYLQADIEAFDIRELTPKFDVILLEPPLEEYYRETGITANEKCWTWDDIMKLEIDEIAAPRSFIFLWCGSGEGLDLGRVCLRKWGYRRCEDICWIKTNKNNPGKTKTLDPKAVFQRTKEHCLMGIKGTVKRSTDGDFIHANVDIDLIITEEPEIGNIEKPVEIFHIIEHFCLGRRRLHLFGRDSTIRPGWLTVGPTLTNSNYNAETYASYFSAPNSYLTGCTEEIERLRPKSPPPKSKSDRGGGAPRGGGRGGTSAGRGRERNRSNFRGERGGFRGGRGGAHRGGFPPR

Turning to `O=C(NCc1cn2cc(CNCCCC(F)(F)F)ccc2n1)c1cc(=O)n2ccccc2n1` [Compound 81, 4-oxo-N-[(6-{[(4,4,4-trifluorobutyl)amino]methyl}imidazo[1,2-a]pyridin-2-yl)methyl]-4H-pyrido[1,2-a]pyrimidine-2-carboxamide], the negative-log IC50 (pIC50) under setting [1] is 7.56.

Take `O=C(NCc1cn2cc(CNCC3CCOCC3)ccc2n1)c1cc(=O)n2ccccc2n1` [Compound 82, N-{[6-({[(oxan-4-yl)methyl]amino}methyl)imidazo[1,2-a]pyridin-2-yl]methyl}-4-oxo-4H-pyrido[1,2-a] pyrimidine-2-carboxamide]: under setting [1], the negative-log IC50 (pIC50) was 6.45.

Regarding `O=C(NCc1cn2cc(CNCC3CC3)ccc2n1)c1cc(=O)n2ccccc2n1` [Compound 84, N-[(6-{[(cyclopropyl-methyl)amino]methyl}imidazo [1,2-a]pyridin-2-yl)methyl]-4-oxo-4H-pyrido [1,2-a]pyrimidine-2-carboxamide], under setting [1], the pIC50 was 7.44.

Turning to `O=C(NCc1cn2cc(CNCCC(F)(F)F)ccc2n1)c1cc(=O)n2ccccc2n1` [Compound 85, 4-oxo-N-[(6-{[(3,3,3-trifluoropropyl)amino]methyl}imidazo[1,2-a]pyridin-2-yl)methyl]-4H-pyrido[1,2-a]pyrimidine-2-carboxamide], the pIC50 under setting [1] is 7.59.

Regarding `O=C(NCc1cn2cc(CNC3CCCCC3)ccc2n1)c1cc(=O)n2ccccc2n1` [Compound 86, N-({6-[(cyclohexyl-amino)methyl]imidazo[1,2-a]pyridin-2-yl}methyl)-4-oxo-4H-pyrido[1,2-a]pyrimidine-2-carboxamide], under setting [1], the pIC50 was 7.64.

For `O=C(NCc1cn2cc(CNCC3CCCCO3)ccc2n1)c1cc(=O)n2ccccc2n1` (centres unmarked) [Compound 88, N-{[6-({[(oxan-2-yl)methyl]amino}methyl)imidazo[1,2-a]pyridin-2-yl]methyl}-4-oxo-4H-pyrido[1,2-a] pyrimidine-2-carboxamide], the negative logarithm of the IC50 (pIC50) under setting [1] is 6.94.

With `O=C(NCc1cn2cc(CNCC3CCCOC3)ccc2n1)c1cc(=O)n2ccccc2n1` (centres unmarked) [Compound 90, N-{[6-({[(oxan-3-yl)methyl]amino}methyl)imidazo [1,2-a]pyridin-2-yl]methyl}-4-oxo-4H-pyrido[1,2-a] pyrimidine-2-carboxamide], the pIC50 under setting [1] was 7.10.

Turning to `O=C(NCc1cn2cc(CNCC3(F)CCCCC3)ccc2n1)c1cc(=O)n2ccccc2n1` [Compound 91, N-{[6-({[(1-fluorocyclohexyl)methyl]amino}methyl)imidazo [1,2-a]pyridin-2-yl]methyl}-4-oxo-4H-pyrido[1,2-a]pyrimidine-2-carboxamide], the negative logarithm of the IC50 (pIC50) under setting [1] was 7.24.

Take `O=C(NCc1cn2cc(CNCc3cccc(C4CC4)c3)ccc2n1)c1cc(=O)n2ccccc2n1` [Compound 92, N-{[6-({[(3-cyclopropyl-phenyl)methyl]amino}methyl)imidazo[1,2-a]pyridin-2-yl]methyl}-4-oxo-4H-pyrido[1,2-a]pyrimidine-2-carboxamide]: the negative-log IC50 (pIC50) under setting [1] is 6.95.

As to `CC(C)(C)CCNCc1ccc2nc(CNC(=O)c3cc(=O)n4ccccc4n3)cn2c1` [Compound 93, N-[(6-{[(3,3-dimethylbutyl)amino]methyl}imidazo[1,2-a]pyridin-2-yl)methyl]-4-oxo-4H-pyrido[1,2-a] pyrimidine-2-carboxamide], the pIC50 under setting [1] is 7.89.

Take `O=C(NCc1cn2cc(CNCCOC(F)(F)F)ccc2n1)c1cc(=O)n2ccccc2n1` [Compound 94, 4-oxo-N-{[6-({[2-(trifluoromethoxy)ethyl]amino}methyl)imidazo [1,2-a]pyridin-2-yl]methyl}-4H-pyrido[1,2-a] pyrimidine-2-carboxamide]: the negative logarithm of the IC50 (pIC50) under setting [1] was 6.88.

For the compound `O=C(NCc1cn2cc(CNCC3CCCO3)ccc2n1)c1cc(=O)n2ccccc2n1` (centres unmarked) [Compound 95, 4-oxo-N-{[6-({[(oxolan-2-yl)methyl]amino}methyl)imidazo [1,2-a]pyridin-2-yl]methyl}-4H-pyrido[1,2-a]pyrimidine-2-carboxamide], the pIC50 under setting [1] is 7.13.

Regarding `CS(=O)(=O)CCNCc1ccc2nc(CNC(=O)c3cc(=O)n4ccccc4n3)cn2c1` [Compound 96, N-[(6-{[(2-methane-sulfonylethyl)amino]methyl}imidazo[1,2-a]pyridin-2-yl)methyl]-4-oxo-4H-pyrido [1,2-a]pyrimidine-2-carboxamide], the negative logarithm of the IC50 (pIC50) under setting [1] was 6.02.

On to `O=C(NCc1cn2cc(CN3CCC(c4ccccc4)C3)ccc2n1)c1cc(=O)n2ccccc2n1` (centres unmarked) [Compound 97, 4-oxo-N-({6-[(3-phenylpyrrolidin-1-yl)methyl]imidazo [1,2-a]pyridin-2-yl}methyl)-4H-pyrido[1,2-a] pyrimidine-2-carboxamide], for which the negative-log IC50 (pIC50) under setting [1] was 5.99.

As to `O=C(NCc1cn2cc(CNC3(C4CCCCC4)CC3)ccc2n1)c1cc(=O)n2ccccc2n1` [Compound 98, N-[(6-{[(1-cyclohexyl-cyclopropyl)amino]methyl}imidazo[1,2-a]pyridin-2-yl)methyl]-4-oxo-4H-pyrido [1,2-a]pyrimidine-2-carboxamide], the pIC50 under setting [1] is 7.34.

On to `O=C(NCc1cn2cc(CNCc3cncs3)ccc2n1)c1cc(=O)n2ccccc2n1` [Compound 99, 4-oxo-N-{[6-({[(1,3-thiazol-5-yl)methyl]amino}methyl)imidazo[1,2-a]pyridin-2-yl]methyl}-4H-pyrido[1,2-a] pyrimidine-2-carboxamide], for which the pIC50 under setting [1] is 6.50.

Turning to `CC(C)(C)OC(=O)N1CCCC(CNCc2ccc3nc(CNC(=O)c4cc(=O)n5ccccc5n4)cn3c2)C1` (centres unmarked) [Compound 100, tert-butyl 3-{[({2-[({4-oxo-4H-pyrido[1,2-a]pyrimidin-2-yl}formamido)methyl]imidazo [1,2-a]pyridin-6-yl}methyl)amino]methyl}piperidine-1-carboxylate], the pIC50 under setting [1] was 5.86.

Regarding `O=C(NCc1cn2cc(CNCC3CCC(F)(F)CC3)ccc2n1)c1cc(=O)n2ccccc2n1` [Compound 101, N-{[6-({[(4,4-difluorocyclohexyl)methyl]amino}methyl)imidazo [1,2-a]pyridin-2-yl]methyl}-4-oxo-4H-pyrido [1,2-a]pyrimidine-2-carboxamide], under setting [1], the negative-log IC50 (pIC50) was 7.74.

On to `CC(C)(C)OC(=O)N1CCCCC1CNCc1ccc2nc(CNC(=O)c3cc(=O)n4ccccc4n3)cn2c1` (centres unmarked) [Compound 102, tert-butyl 2-{[({2-[({4-oxo-4H-pyrido[1,2-a]pyrimidin-2-yl} formamido)methyl]imidazo[1,2-a]pyridin-6-yl}methyl)amino]methyl}piperidine-1-carboxylate], for which the negative-log IC50 (pIC50) under setting [1] is 6.37.

On to `O=C(NCc1cn2cc(CNCc3ccn(CC(F)(F)F)n3)ccc2n1)c1cc(=O)n2ccccc2n1` [Compound 105, 4-oxo-N-({6-[({[1-(2,2,2-trifluoroethyl)-1H-pyrazol-3-yl]methyl}amino)methyl]imidazo[1,2-a]pyridin-2-yl}methyl)-4H-pyrido[1,2-a] pyrimidine-2-carboxamide], for which the negative logarithm of the IC50 (pIC50) under setting [1] was 5.92.

For the compound `CC1(CNCc2ccc3nc(CNC(=O)c4cc(=O)n5ccccc5n4)cn3c2)CCCCC1` [Compound 106, N-{[6-({[(1-methylcyclohexyl)methyl]amino}methyl)imidazo [1,2-a]pyridin-2-yl]methyl}-4-oxo-4H-pyrido [1,2-a]pyrimidine-2-carboxamide], the pIC50 under setting [1] was 7.82.

Regarding `O=C(NCc1cn2cc(CNCCc3cccnc3)ccc2n1)c1cc(=O)n2ccccc2n1` [Compound 107, 4-oxo-N-{[6-({[2-(pyridin-3-yl)ethyl]amino}methyl)imidazo[1,2-a]pyridin-2-yl]methyl}-4H-pyrido[1,2-a]pyrimidine-2-carboxamide], under setting [1], the pIC50 was 6.84.

Consider `O=C(NCc1cn2cc(CNCC3COCCO3)ccc2n1)c1cc(=O)n2ccccc2n1` (centres unmarked) [Compound 108, N-{[6-({[(1,4-dioxan-2-yl)methyl]amino}methyl)imidazo [1,2-a]pyridin-2-yl]methyl}-4-oxo-4H-pyrido[1,2-a] pyrimidine-2-carboxamide], for which the negative-log IC50 (pIC50) under setting [1] was 6.62.

For `O=C(NCc1cn2cc(CNC3CC3)ccc2n1)c1cc(=O)n2ccccc2n1` [Compound 109, N-({6-[(cyclopropyl-amino)methyl]imidazo[1,2-a]pyridin-2-yl}methyl)-4-oxo-4H-pyrido[1,2-a] pyrimidine-2-carboxamide], the negative logarithm of the IC50 (pIC50) under setting [1] is 6.46.

Take `O=C(NCc1cn2cc(CNC3CC(F)(F)C3)ccc2n1)c1cc(=O)n2ccccc2n1` [Compound 110, N-[(6-{[(3,3-difluorocyclobutyl)amino]methyl}imidazo[1,2-a]pyridin-2-yl)methyl]-4-oxo-4H-pyrido[1,2-a] pyrimidine-2-carboxamide]: under setting [1], the pIC50 is 6.99.

As to `O=C(NCc1cn2cc(CNCC3COC3)ccc2n1)c1cc(=O)n2ccccc2n1` [Compound 111, N-{[6-({[(oxetan-3-yl)methyl]amino}methyl)imidazo[1,2-a]pyridin-2-yl]methyl}-4-oxo-4H-pyrido[1,2-a] pyrimidine-2-carboxamide], the pIC50 under setting [1] is 6.96.

On to `CC(C)(C)CNCc1ccc2nc(CNC(=O)c3cc(=O)n4ccccc4n3)cn2c1` [Compound 113, N-[(6-{[(2,2-dimethylpropyl)amino]methyl}imidazo[1,2-a]pyridin-2-yl)methyl]-4-oxo-4H-pyrido[1,2-a] pyrimidine-2-carboxamide], for which the negative logarithm of the IC50 (pIC50) under setting [1] was 7.78.

`O=C(NCc1cn2cc(CNC3CCC(F)(F)CC3)ccc2n1)c1cc(=O)n2ccccc2n1` [Compound 115, N-[(6-{[(4,4-difluoro-cyclohexyl)amino]methyl}imidazo [1,2-a]pyridin-2-yl)methyl]-4-oxo-4H-pyrido [1,2-a]pyrimidine-2-carboxamide]: the negative logarithm of the IC50 (pIC50) under setting [1] was 7.36.

As for `O=C(NCc1cn2cc(CNC34CC(C3)C4)ccc2n1)c1cc(=O)n2ccccc2n1` [Compound 116, N-({6-[({bicyclo[1.1.1]pentan-1-yl}amino)methyl]imidazo[1,2-a]pyridin-2-yl}methyl)-4-oxo-4H-pyrido[1,2-a] pyrimidine-2-carboxamide], the negative logarithm of the IC50 (pIC50) is 6.55.

By pIC50 is commonly meant −log10 of the IC50, conventionally taken in molar units.
